Laboratory results taken from US20140303123A1, “SYNTHESIZING FUNCTIONALIZED DENDRIMERS WITHIN BIOLOGICAL SETTINGS” (priority 2011, published 2014).

Columns and labels:
[1] = system: folate receptor; conditions: relative to folic acid; cited from earlier work
[2] = system: CD11b+ macrophages (peritoneal macrophages, lymph nodes); experiment: In vivo trafficking of FA-targeted dendrimer nanoparticles in a murine model of inflammation (thioglycollate IP); conditions: thioglycollate-stimulated mice, 35 mg/kg IP on day 3, cells isolated day 4 (FIG. 6); for uptake in peritoneal macrophages (PEM): 35 mg/kg
Method: Mice (n=2) were stimulated with thioglycollate IP. 3 days following thioglycollate, mice were administered 200 μl (35 mg/kg) folate functionalized dendrimer alkyne scaffolds. One day later (day 4), peritoneal macrophages (PEM), spleen, cervical lymph nodes, and mesenteric lymph nodes were isolated and processed into single-cell suspensions. Suspensions were stained with a CD11b monoclonal PE antibody and then fixed and permeabilized. Cell suspensions were then reacted with AlexaFluor 647-azide to detect dendrimer conjugates and analyzed by flow cytometry.
On day 1, mice (n=2) were treated IP with thioglycollate to stimulate folate receptor positive macrophage infiltration into the peritoneal cavity (see, e.g., Xia, W. et al. Blood 113, 438-446 (2005); herein incorporated by reference in its entirety). On day 3, mice were administered folate targeted dendrimers IP (35 mg/kg). On day 4, peritoneal macrophages (PEM) as well as the spleen, submandibular lymph nodes, and mesenteric lymph nodes were isolated and processed as using standard techniques. Single cell suspensions were made and analyzed by flow cytometry for co-expression of the macrophage marker CD11b and the FA-dendrimer scaffolds. […] Compared to the cervical lymph nodes (secondary lymph organs not draining the peritoneal cavity), there was a greater proportion of double-positive CD11b and FR cells in the mesenteric lymph nodes consistent with the trafficking of these activated macrophages.

[3] = system: FRα over-expressing KB cells; experiment: Uptake of dendrimer conjugates in KB cells, in situ CuAAC detection with fluorescent azide, flow cytometry; assay type: cell-based; conditions: increasing concentrations, 1 hour at 37° C., Alexa647-azide detection (FIG. 2A)
Method: KB cells were cultured in RPMI 1640 medium without folic acid for at least 4 days before experiments, resulting in the folic acid receptor overexpressing KB (FAR-KB) cell line. […] For the flow cytometry measurements, cells were seeded on a 12-well plate for tissue culture at a concentration of 23105 cells/well and grown in folic acid deficient RPMI 1640 media (Mediatech, Herndon, Va.) at 37° C., 5% CO2 for 24 hr. The cells were then incubated with the series of the prepared nanodevices at either 37° C. for 1 hr. After removal of supernatants, cells were trypsinized and collected into FACS tubes, followed by centrifugation at 1500 rpm for 5 min to obtain cell pellets. […] Fluorescence signal intensities from the samples were measured using a Coulter EPICS/XL MCL Beckman-Coulter flow cytometer, and data were analyzed using FloJo 8.2 software (TreeStar).
After 4% paraformaldehyde fixation and permeabilization with 10% saponin in PBS and BSA, cells were rinsed and then stained by incubating cells for 30 min with 100 mM Tris (pH 8.5), 1 mM CuSO4, 1-100 μM fluorescent azide (in DMSO), and 100 mM ascorbic acid (added last to the mix in 0.5 M stock in water). […] After staining, cells were washed with 10% saponin solution and assessed by flow cytometry.

[4] = system: bone marrow derived macrophages (BMDM); conditions: BMDMs differentiated with IL-4 and IL-10, 30 nM, 6 hours at 37° C. (FIG. 4)
Method: Bone marrow derived macrophages (BMDM) were obtained as previously described. Briefly, bone marrow precursors from female C57BL/6 mice were isolated and propagated for 7 days in RPMI 1640 supplemented with penicillin (100 units/ml), streptomycin (100 mg/ml), and 10% heat inactivated low endotoxin fetal bovine serum with L-conditioned media. Following propagation, BMDMs were polarized with murine recombinant proteins M-CSF (10 ng/ml), IL4 (50 ng/ml), IL10 (10 ng/ml), or GM-CSF (10 ng/ml) for 72 hours (Peprotech). For the flow cytometry measurements, cells were seeded on a 12-well plate for tissue culture at a concentration of 23105 cells/well and grown in folic acid deficient RPMI 1640 media (Mediatech, Herndon, Va.) at 37° C., 5% CO2 for 24 hr. […] Fluorescence signal intensities from the samples were measured using a Coulter EPICS/XL MCL Beckman-Coulter flow cytometer, and data were analyzed using FloJo 8.2 software (TreeStar).
After 4% paraformaldehyde fixation and permeabilization with 10% saponin in PBS and BSA, cells were rinsed and then stained by incubating cells for 30 min with 100 mM Tris (pH 8.5), 1 mM CuSO4, 1-100 μM fluorescent azide (in DMSO), and 100 mM ascorbic acid (added last to the mix in 0.5 M stock in water). […] After staining, cells were washed with 10% saponin solution and assessed by flow cytometry. […]

## CN(Cc1cnc2nc(N)nc(N)c2n1)c1ccc(C(=O)N[C@@H](CCC(=O)O)C(=O)O)cc1 [methotrexate]
[1]
  affinity for the folate receptor in comparison to folic acid (lower): 100 fold

## G5-NHAc80-Alkyne8-FA4-Gly [FA-dendrimer alkyne conjugates]
[2]
  uptake in CD11b+ cells in the mesenteric lymph nodes: significant uptake
[2]; listed as FA-dendrimer nanoparticles
  uptake in peritoneal macrophages (PEM): much higher uptake
[2]; listed as folate nanodevices
  uptake in peritoneal macrophages (PEM): significant uptake
[3]
  cellular uptake: dose-dependent cellular uptake

## G5-NHAc80-Alkyne12-Gly [non-targeted dendrimer conjugates]
[3]
  cellular uptake: did not demonstrate any significant uptake

## G5-NHAc80-Alkyne12-Mannose15-Gly [mannose-targeted dendrimers]
[4]
  binding and uptake compared to non-targeted controls: increased binding and uptake
